Data reported in patent US9149536B2, “Conjugated antimicrobial agents” (priority 2009, dated 2015).
Values after ≈ are worked out from the molar mass of the structure shown. Where two headings read alike, the source gives them in different places.

Experiments:
E. coli AG100A = test: MIC, double-microdilution, E. coli AG100A; format: cell-based, Escherichia coli; settings: for MIC E. coli AG100A: Table 4, kanamycin resistant, APH(3′)-I
E. coli R477-100 = test: MIC, double-microdilution, E. coli R477-100; format: cell-based, Escherichia coli; settings: for MIC E. coli R477-100: Table 4; for MIC: Escherichia coli
E. coli XL1 blue/pSF815 = test: microbe, parasite or virus in culture; format: cell-based; settings: for MIC ratio XL1 blue/pSF815 to XL1 blue: MIC resistant strain divided by MIC background strain; for MIC XL1 blue/pSF815: expressed enzyme AAC(6′)-APH(2″)
Protocol: (§1) For this purpose, exemplary conjugates, according to some embodiments of the present invention, were tested against five isogenic E. coli strains. E. coli (pSF815) and E. coli (pET9d) are laboratory resistant strains derived by transformation of E. coli XL1 blue (background strain) with the pSF815 and pET9d plasmids, respectively. […] The last two isogenic strains used were E. coli BL21 (background strain) and E. coli (pETSACG1). […] These three enzymes are among the most prevalent modes of resistance found in aminoglycosides resistance strains.
(§2) The MIC ratios were calculated by dividing the MIC value against resistant strain to that against the respective background strain.

E. coli BL21 = test: microbe, parasite or virus in culture; format: cell-based; settings: background strain
Protocol: as §1, §2

E. coli XL1 blue = test: microbe, parasite or virus in culture; format: cell-based; settings: background strain
Protocol: as §1, §2

E. coli BL21/pETSACG1 = test: microbe, parasite or virus in culture; format: cell-based; settings: for MIC ratio BL21/pETSACG1 to BL21: MIC resistant strain divided by MIC background strain; for MIC BL21/pETSACG1: expressed enzyme APH(3′)-IIIa
Protocol: as §1, §2

E. coli XL1 blue/pET9d = test: microbe, parasite or virus in culture; format: cell-based; settings: for MIC ratio XL1 blue/pET9d to XL1 blue: MIC resistant strain divided by MIC background strain; for MIC XL1 blue/pET9d: expressed enzyme APH(3′)-Ia
Protocol: as §1, §2

B. subtilis ATCC 6633 [1] = test: MIC, double-microdilution, B. subtilis ATCC 6633; format: cell-based; settings: for MIC: Bacillus subtilis, ATCC6633
E. coli ATCC 25922 = test: MIC, double-microdilution, E. coli ATCC 25922; format: cell-based, Escherichia coli; settings: for MIC: Escherichia coli, ATCC25922
APH(3′)-IIIa enzyme = biological target: T1, APH(3′)-IIIa enzyme (Enterococcus faecalis, UniProt P0A3Y5); format: biochemical
T1 construct: made in house; host or cells: E. coli BL21 carrying pETSACG1 (inferred)
T1 sequence (P0A3Y5 whole entry): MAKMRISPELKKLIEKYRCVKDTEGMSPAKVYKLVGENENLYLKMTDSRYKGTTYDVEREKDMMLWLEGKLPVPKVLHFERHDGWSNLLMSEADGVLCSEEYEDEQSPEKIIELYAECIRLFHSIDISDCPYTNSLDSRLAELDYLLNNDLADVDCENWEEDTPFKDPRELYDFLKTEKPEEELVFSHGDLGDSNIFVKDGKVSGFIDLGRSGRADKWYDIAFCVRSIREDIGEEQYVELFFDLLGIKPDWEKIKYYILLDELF

E. coli AG100B = test: MIC, double-microdilution, E. coli AG100B; format: cell-based, Escherichia coli; settings: for MIC E. coli AG100B: Table 4; for MIC: Escherichia coli, AG100B
Text: AG100B and AG100A are two kanamycin resistant Escherichia coli strains expressing APH(3′)-I aminoglycoside resistance enzyme.

MRSA ATCC 43300 = test: microbe, parasite or virus in culture; format: cell-based, S. aureus; settings: Table 4
[2] = system: bacterial protein synthesis; test: In vitro coupled transcription/translation assay, E. coli S30 extract; format: biochemical; settings: luciferase readout
Protocol: Protein translation inhibition by the different compounds was quantified in a coupled transcription/translation assay by using E. coli S30 extracts for circular DNA with the pBEST/uc plasmid (Promega), according to the manufacturer's protocol.
Translation reactions (25 μl) that contained variable concentrations of the tested compound were incubated at 37° C. for 60 minutes, cooled on ice for 5 minutes, and diluted with a dilution reagent (tris-phosphate buffer (25 mM, pH 7.8), DTT (2 mM), 1,2-diaminocyclohexanetetraacetate (2 mM), glycerol (10%), Triton X-100 (1%) and BSA (1 mg/ml)) into 96-well plates. The luminescence was measured immediately after the addition of the Luciferase Assay Reagent (50 μl; Promega), and the light emission was recorded with a Victor3™ Plate Reader (Perkin-Elmer). The concentration of half-maximal inhibition (IC50) was obtained from fitting concentration-response curves to the data of at least two independent experiments by using Grafit 5 software (Leatherbarrow, R. J. Erithacus Software Ltd: Horley, U.K., 2001).
Relaxation assays were conducted with E. coli TopoIV.

B. subtilis ATCC 6633 [3] = test: microbe, parasite or virus in culture; format: cell-based; settings: Bacillus subtilis, ATCC6633, read-out: MIC 15th passage, B.subtilis ATCC 6633
Protocol: (§3) In parallel, MIC evolution during these subcultures was compared concomitantly with each new generation, using bacteria harvested from control wells (wells cultured without antimicrobial agent from the previous generation). The relative MIC was calculated for each experiment from the ratio of MIC obtained for a given subculture to that obtained for first-time exposure.

E. coli ATCC 35218 = test: microbe, parasite or virus in culture; format: cell-based; settings: Escherichia coli, ATCC35218, read-out: MIC 15th passage, E.coli ATCC 35218
Protocol: as §3

[4] = compound as substrate of APH(3′)-IIIa

| Compound | MIC E. coli AG100A (E. coli AG100A) | MIC E. coli R477-100 (E. coli R477-100) | MIC ratio XL1 blue/pSF815 to XL1 blue (E. coli XL1 blue/pSF815) | MIC XL1 blue/pSF815 (E. coli XL1 blue/pSF815) | MIC BL21 (E. coli BL21) | MIC XL1 blue (E. coli XL1 blue) | MIC ratio BL21/pETSACG1 to BL21 (E. coli BL21/pETSACG1) | MIC BL21/pETSACG1 (E. coli BL21/pETSACG1) | MIC ratio XL1 blue/pET9d to XL1 blue (E. coli XL1 blue/pET9d) | MIC XL1 blue/pET9d (E. coli XL1 blue/pET9d) | MIC B. subtilis ATCC 6633 (B. subtilis ATCC 6633 [1]; Table 4) | MIC E. coli ATCC 25922 (E. coli ATCC 25922; Table 4) | MIC E. coli AG100B (E. coli AG100B; kanamycin resistant, APH(3′)-I) | MIC MRSA ATCC 43300 (MRSA ATCC 43300) | other results |
| --- | --- | --- | --- | --- | --- | --- | --- | --- | --- | --- | --- | --- | --- | --- | --- |
| NCC1OC(OC2C(C(=O)NCc3cn(CC(O)CN4CCN(c5cc6c(cc5F)c(=O)c(C(=O)O)cn6C5CC5)CC4)nn3)OC(OC3C(O)C(N)CC(N)C3OC3OC(CN)C(O)C(O)C3N)C2O)C(N)C(O)C1O (stereo not shown) [Compound 1m, N-((1-(2-hydroxy-3-(ciprofloxacin)propyl)-1H-1,2,3-triazol-4-yl)-5″-methyl)neomycin carboxamide] | 0.75 µg/mL (≈ 0.684 µM) | 6 µg/mL (≈ 5.47 µM) | 8 | 48 μg/ml | 0.2 µg/mL (≈ 0.182 µM) | 6 µg/mL (≈ 5.47 µM) | 1 | 0.2 μg/ml | 2 | 12 μg/ml | 3 µg/mL (≈ 2.74 µM) | 3 µg/mL (≈ 2.74 µM) | 12 µg/mL (≈ 10.9 µM) | 12 µg/mL (≈ 10.9 µM) | MIC against E. coli (pETSACG1) (E. coli BL21/pETSACG1; molar expression of 0.2 μg/ml): 5.5 μM; Km (APH(3′)-IIIa enzyme): 87 µM; Km (APH(3′)-IIIa enzyme; [4]): 86.8 ± 8.9 µM; kcat (APH(3′)-IIIa enzyme; [4]): 2.5 ± 0.1 s⁻¹ |
| O=C(O)c1cn(C2CC2)c2cc(N3CCNCC3)c(F)cc2c1=O [Cipro, ciprofloxacin, reference compound] |  |  |  |  |  |  |  |  |  |  |  |  |  | 0.20 µg/mL (≈ 0.604 µM) | MIC (E. coli AG100A; Escherichia coli, AG100A, read-out: MIC E. coli AG100A, Table 6): < 0.003 µg/mL; Protein synthesis IC50 [2]: inactive; MIC (B. subtilis ATCC 6633 [3]): 0.75 µg/mL (≈ 2.26 µM); MIC (E. coli ATCC 35218): 0.75 µg/mL (≈ 2.26 µM); MIC (E. coli R477-100; R477100, read-out: MIC E. Coli R477-100): 0.023 µg/mL (≈ 0.0694 µM); MIC (E. coli R477-100; R477100, read-out: MIC E. coli R477-100): 0.02 µg/mL (≈ 0.0604 µM); MIC (B. subtilis ATCC 6633 [1]; Table 4, read-out: MIC B. subtilis ATCC 6633): 0.02 µg/mL (≈ 0.0604 µM); MIC (B. subtilis ATCC 6633 [1]; Table 6, read-out: MIC Bacillus subtilis): 0.023 µg/mL (≈ 0.0694 µM); MIC (E. coli ATCC 25922; Table 4, read-out: MIC E. coli ATCC 25922): 0.02 µg/mL (≈ 0.0604 µM); MIC (E. coli ATCC 25922; Table 6, read-out: MIC E. coli 25922): 0.023 µg/mL (≈ 0.0694 µM); MIC (E. coli AG100B; read-out: MIC E. coli AG100B, Table 4, kanamycin resistant, APH(3′)-I): 0.05 µg/mL (≈ 0.151 µM); MIC (E. coli AG100B; read-out: MIC E. coli AG100B, Table 6): 0.06 µg/mL (≈ 0.181 µM); MIC (MRSA ATCC 43300; Staphylococcus aureus, read-out: MIC MRSA ATCC 43300): 0.2 µg/mL (≈ 0.604 µM) |
| NCC1OC(OC2C(C(=O)NCc3cn(Cc4cccc(CN5CCN(c6cc7c(cc6F)c(=O)c(C(=O)O)cn7C6CC6)CC5)c4)nn3)OC(OC3C(O)C(N)CC(N)C3OC3OC(CN)C(O)C(O)C3N)C2O)C(N)C(O)C1O (stereo not shown) [Compound 1o, N-((1-(3-((ciprofloxacin)methyl)benzyl)-1H-1,2,3-triazol-4-yl)-5″-methyl)neomycin carboxamide] | 0.75 µg/mL (≈ 0.657 µM) | 6 µg/mL (≈ 5.25 µM) | 4 | 24 μg/ml | 0.4 µg/mL (≈ 0.35 µM) | 6 µg/mL (≈ 5.25 µM) | 1 | 0.4 μg/ml | 1 | 6 μg/ml | 3 µg/mL (≈ 2.63 µM) | 6 µg/mL (≈ 5.25 µM) | 12 µg/mL (≈ 10.5 µM) | 6 µg/mL (≈ 5.25 µM) |  |
